{Biotin} = biotin of the strand; {Cy5} = Cy5 fluorescent label

Data on 5 molecules can be found in patent publication US20220226473A1, “Nucleic acid nanocarrier drug and preparation method thereof, pharmaceutical composition and application thereof” (BAI YAO ZHI DA (BEIJING) NANOBIO TECHNOLOGY CO., LTD., priority 2018, published 2022).

The test system of data set [1] is MCF-7 cells. The experiment in a line: Cytotoxicity of RNAh-Bio-670-THP and RNAh-Bio-670-DNR nanoparticles, CTG. The data set is classed as cell-based, human. The following applies: MCF-7, 72 h, 200 nM.
Description: 1) Using the RPMI1640+10% FBS+1% PS medium to culture the MOLT4 cells at 37 DEG C. and 5% CO2.
2) Collecting the cells, centrifuging at 800 rpm for 5 minutes, resuspending the medium, adjusting the cell concentration, and adding to the 96-we plate in a volume of 5000 cells per 90 μL.
3) Diluting a sample to be tested with the culture medium on the next day, respectively adding 200 nM to each sample, herein each sample has 4 replicate wells for replication.
4) After being cultured for 72 hours, adding 100 μL of the CTG reagent to each well, shaking for 2 minutes, and standing at the room temperature for 10 minutes, herein a whole process is protected from light.
5) Finally using Soft Max Pro5 software to read.
Samples to be tested: small molecular drug THP and RNAh-Bio-670-THP nanoparticles;
1) Except that it is the MCF-7 cells, the rest are the same as (III).
For data set [2], the system named is MCF-7 cells. The experiment in a line: Cytotoxicity of DNAh-Bio-EGFRapt-Cy5-EPB nanoparticles, CellTiter 96 AQueous One Solution. The data set is classed as cell-based, human.
Excerpt: GraphPad Prism5.0 software is used to process data graphically. […] A calculation formula of the cell survival rate is as follows, the IC50 may be automatically calculated in the GraphPad Prism 5.0. […]
Another data set concerns HL60 cells. Description: Cytotoxicity of RNAh-Bio-670-EPB nanoparticles, CellTiter-Glo. Type of data set: cell-based. The following applies: Homo sapiens, HL-60, 72 hours. The method, then:
Preparing a freshly prepared reagent into a corresponding volume container, and adding PBS to be quantified to 10 μM.
Cells are cultured at 37 DEG C. and 5% CO2 in a corresponding basal medium in which 10% FBS and 1% PS are respectively added. The cell density used in the experiment is above 80%. The cells are collected, and centrifuged at 1000 rpm for 4 minutes, the medium is resuspended, the cell concentration is adjusted, and it is added to the 96-well plate in a volume of 3000 cells per 50 μL, and each group has 3 replicate wells.
After 24 hours, the compound solution is transferred to each well by 50 μL/well.
The above cells after administration are cultured for 72 hours under a condition of 37 DEG C and 5% CO2.
The well plate is brought to a room temperature in advance and stands for 30 minutes, 100 μL of a CellTiter-Glo® reagent is added to each well of the well plate and mixed for 2 minutes on a shaker to promote cell lysis. The Perkin Elmer Envision 2104 Multilabel Reader is used to read values and the values are recorded.
The acquired experiment data is analyzed and processed by using excel software, and GraphPad Prism 5 software is used for curve fitting analysis.

In data set [3] the test system is NCI-H1975 cells. Description: Cytotoxicity of DNAh-Bio-EGFRapt-Cy5-EPB nanoparticles, CellTiter 96 AQueous One Solution. The data set is classed as cell-based. The following applies: for IC50: NCI-H1975, 96 hours.
Description: GraphPad Prism5.0 software is used to process data graphically. In order to calculate the IC50, “W”-shaped non-linear regression analysis is performed on the data to match a suitable dosage-effect curve. A calculation formula of the cell survival rate is as follows, the IC50 may be automatically calculated in the GraphPad Prism 5.0.
The next data set relates to HepG2 cells. Description: Cytotoxicity of RNAh-Biotin-quasar670-flu nanoparticles. The data set is classed as cell-based. The method, then: I. Samples to be tested: small molecular […] chemical drug and RNAh-Biotin-quasar670-flu nanoparticles.
In order to further determine that the RNA nanoparticles without carrying the […] have no apparent cytotoxicity to the HepG2 cells, the inventor further designs a toxicity experiment of the RNAh-Biotin-FAM (FAM is a fluorescent marker), a targeted fluorescent carrier, to the HepG2 cells (a drug administration gradient in the experiment is as follows: 100 μM, 31.6 μM, 10 μM, 3.16 μM, 1 μM, 316 nM, 100 nM, 31.6 nM, 10 nM, and 0 (10% PBS)), the results thereof are shown in Table 134 and FIG. 95.

Data set [4] relates to SKOV3 cells. Description: Flow cytometer binding of pirarubicin-loaded DNA nanoparticles. Type of data set: cell-based, human. Particulars: SKOV3, 2 μM, 2 hours. On the procedure:
(§1) 1). Adjusting a cell state to a logarithmic growth phase, changing the medium to a medium without biotin and folic acid, and incubating overnight in the incubator at 37 DEG C;
(§2) 2). dissolving the substances to be tested and preparing the to-be-tested substance stock solution;
(§3) 3). digesting and collecting the single-cell suspension and counting, adjusting the cell density to 2×10^5/mL, planting 1 mL/well into the 24-well plate;
(§4) 4). respectively adding the substances to be tested to the corresponding cell wells, herein the final concentration is 2 μM, shaking and mixing uniformly;
(§5) 5). placing the cell plate in the Incubator at 37 DEG C. and Incubating for 2 hours;
(§6) 6). after the incubation, pancreatin-digesting and collecting the cell suspension;
(§7) 7). centrifugally collecting a cell precipitation, and washing twice with the PBS;
(§8) 8). finally, resuspending the cell precipitation with 300 μL of the PBS, and performing a flow cytometric on-machine detection; herein detection channels of fluorescence carrier or pirarubicin targeted drug: excitation light wavelength: 488 nm, and emission light channel: 560 nm; and […]
For orientation: Flow cytometry measures light scatter and fluorescence of single cells or particles in a stream.

For data set [5], the system named is SGC-7901 cells. The description is as above. The data set is classed as cell-based, human. Particulars: SGC-7901, 2 μM, 2 hours. On the procedure:
as §1, §2, §3, §4, §5, §6, §7, §8

The test system of data set [6] is MCF-7 cells. The experiment in a line: Flow cytometry binding of DNAh-Bio-EGFRapt-Cy5-EPB nanoparticles. The data set is classed as cell-based, human. Particulars: 2 hours. On the procedure: (§9) MCF-7 (source: ATCC, and article number: HTB-22), NCI-H1975 (source: ATCC, and article number: CRL-5008); a culture medium is MEM+10% FBS, and culture conditions are 37 DEG C., 5% CO2, and saturated humidity.
(§10) 1. Adjusting a cell state to a logarithmic growth phase, changing the medium to a medium without biotin and folic acid, and incubating overnight in the incubator at 37 DEG C;
(§11) 2. dissolving the substances to be tested and preparing the to-be-tested substance stock solution;
(§12) 3. digesting and collecting the single-cell suspension and counting, adjusting the cell density to 2×10^5/mL, planting 1 mL/well into the 24-well plate;
(§13) 4. respectively adding the substances to be tested to the corresponding cell wells, herein the final concentration is 2 μM, shaking and mixing uniformly;
(§14) 5. placing the cell plate in the incubator at 37 DEG C. and incubating for 2 hours;
(§15) 6. after the incubation, pancreatin-digesting and collecting the cell suspension;
(§16) 7. centrifugally collecting a cell precipitation, and washing twice with the PBS;
(§17) 8. finally, resuspending the cell precipitation with 300 μL of the PBS, and performing a flow cytometric on-machine detection;
(§18) 9. fluorescence carrier or epirubicin detection channels: excitation light wavelength: 488 nm, and emission light channel: 560 nm; and […]

Data set [7] has as its system NCI-H1975 cells. The description is as above. The data set is classed as cell-based. The following applies: 2 hours. The method, then:
as §9, §10, §11, §12, §13, §14, §15, §16, §17, §18

In data set [8] the test system is SKOV3 cells. The experiment in a line: Cytotoxicity of DNAh-Biotin-EGFRapt-Cy5-THP nanoparticles. The data set is classed as cell-based, human. The following applies: SKOV3. On the procedure: (§19) 2) adjusting the cell density to 2.22×10^4/mL with a growth medium:
(§20) 3) planting 90 μL/well of cell suspension into the 96-well plate, herein the number of cells per well in the plate is 2000;
(§21) 4) placing the planted cell plate in the incubator at 37 DEG C. and incubating overnight;
(§22) 5) performing 3.16-fold gradient dilution on the compound at 9 concentration points;
(§23) 6) taking out the cell culture plate, and adding 10 μL/well of 10× concentration drug working solution to the corresponding wells of the cell culture plate, herein three replicate holes are made for each concentration, and the final drug action concentration is shown in the table below.
(§24) 7) placing the cell culture plate in the incubator and continuously incubating for 96 hours;
(§25) 8) placing the CellTiter 96@D AQueous One Solution reagent at the room temperature and thawing for 90 minutes or thawing in a water bath at 37 DEG C., and then equilibrating at the room temperature for 30 minutes;
(§26) 9) adding 20 μL/well of the CellTiter 96® AQueous One Solution reagent to the cell culture plate;
(§27) 10) placing the cell culture plate in the incubator at 37 DEG C. and continuously incubating for 3 hours;
(§28) 11) using the microplate reader to read a OD490 value of each well in the cell plate; and
(§29) 12) data processing and analysis.
(§30) GraphPad Prism5.0 software is used to process data graphically. In order to calculate the IC50, […] non-linear regression analysis is performed on the data to match a suitable dosage-effect curve. A calculation formula of the cell survival rate is as follows, the IC50 may be automatically calculated in the GraphPad Prism 5.0.
(§31) Cell survival rate (%)=(ODtest well−ODblank control)/(ODnegative control−ODblank control)×100%.
(§32) II. Experiment Device and Method Same as (II)

The test system of data set [9] is SGC-7901 cells. The data set is described as above. The data set is classed as cell-based, human. The following applies: SGC-7901. On the procedure:
as §19, §20, §21, §22, §23, §24, §25, §26, §27, §28, §29, §30, §31, §32

`COc1cccc2c1C(=O)c1c(O)c3c(c(O)c1C2=O)C[C@@](O)(C(C)=O)C[C@@H]3O[C@H]1C[C@H](N)[C@H](O)[C@H](C)O1` [Daunorubicin (DNR)]: the “cell survival rate (%)” value in the data set with MCF-7 cells [1] amounted to 17.33%.

Consider `COc1cccc2c1C(=O)c1c(O)c3c(c(O)c1C2=O)C[C@@](O)(C(=O)CO)C[C@@H]3O[C@H]1C[C@H](N)[C@H](O[C@@H]2CCCCO2)[C@H](C)O1` [Pirarubicin (THP)], for which the “cell survival rate (%)” value with MCF-7 cells [1] is given as 13.85%.

One may read the inhibition as the percentage by which the read-out fell short of the control. Regarding `COc1cccc2c1C(=O)c1c(O)c3c(c(O)c1C2=O)C[C@@](O)(C(=O)CO)C[C@@H]3O[C@H]1C[C@H](N)[C@@H](O)[C@H](C)O1` [EPB, epirubicin], the “toxicity to MCF-7 cells” value with MCF-7 cells [2] (96 hours) is given as “toxic to the MCF-7 cells”. Moreover, the IC50 is 84.7 nM in the data set on MCF-7 cells [2] (Homo sapiens, MCF7, MCF-7, 96 hours); 69.8 nM with HL60 cells (read-out: IC50, HL60 cell proliferation); 30.6 nM with NCI-H1975 cells [3] (Homo sapiens). In the data set on HL60 cells (concentration 5 μM, read-out: inhibition rate on HL60 cells), the inhibition at 5 µM is 99.2%. In addition, in the data set on NCI-H1975 cells [3] (96 hours), the “toxicity to NCI-H1975 cells” value was “toxic to the NCI-H1975 cells”.

On to `O=c1[nH]cc(F)c(=O)[nH]1` [pentafluorouracil], for which, in the data set on HepG2 cells (HepG2, 72 h, 5 μM), the “Cell inhibition rate (%) when administration concentration is 5 μM” value is on record as 39.02%. Moreover, in the data set on HepG2 cells (administration concentration 5 μM), the “cell inhibition rate (%), HepG2 cells” value came to 39.02%.

B1: DNAh-Bio-EGFRapt-Cy5: targeted fluorescent carrier: DNA nanoparticle, strands SEQ ID NO: 172-174, 5′ biotin, EGFRapt, 3′ Cy5, thio-modified ends (nucleic acid)
chain 1: CGCGCGCCCACGAGCGTTCCGGGCGCGCCTTAGTAACGTGCTTTGATGTCGATTCGACAGGAGGC
chain 2: GCGCCCGGTTCGCCGCCAGCCGCCGC
chain 3: GCGGCGGCAGGCGGCCATAGCCGTGGGCGCGCG
modifications: chain 1: DNA, 5' {Biotin}, backbone not given here; chain 2: DNA, backbone not given here; chain 3: DNA, 3' {Cy5}, backbone not given here; first and last three bases thio-modified, DNA nanoparticle with EGFR aptamer, further chemistry not fully specified
Regarding B1, the “Binding rate (%)” value with SKOV3 cells [4] worked out at 100%; with SGC-7901 cells [5] it was 99.99%; with MCF-7 cells [6] (MCF-7, 2 μM) it was 99.97%; with NCI-H1975 cells [7] (NCI-H1975, 2 μM) it was 100%. In addition, the “binding rate to MCF-7 cells” value in the data set on MCF-7 cells [6] (2 μM) is recorded as 100%. Also, the results for the IC50 in the data set with NCI-H1975 cells [3], with SKOV3 cells [8] and with SGC-7901 cells [9] were > 316 nM, > 1000 nM and > 316 nM, respectively. Further, in the data set on NCI-H1975 cells [7] (2 μM), the “binding rate to NCI-H1975 cells” value is recorded as 100%.
